Where no end group is shown, it is not given here.
What was measured:
human PD1 = human PD1 (Homo sapiens, UniProt Q15116); assay: Biacore surface plasmon resonance, binding to human PD1; conditions: for Rmax: maximum binding capacity; for KA: 25°C, HEPES pH 7.4
Method: (§1) Binding experiments were performed on a Biacore T-200 (GE Healthcare Life Sciences, Buckinghamshire, UK) at 25°C. The assay buffer was 10 mM HEPES buffer (pH 7.4), 150 mM NaCl, 3 mM EDTA, and 0.05% P20. The regeneration buffer was 10 mM HEPES buffer (pH 7.4), 150 mM NaCl, 3 mM EDTA, and 0.05% P20. The immobilization buffer was 10 mM sodium acetate at pH 5.0. The flow rate used for immobilizing the ligand was 5 μL/min. The flow rate for kinetics analysis was 30 μL/min. In initial scouting experiments, 12,000 RU of human and 6000 RU of mouse PD1 receptors were directly immobilized on flow cell 2 and flow cell 4 of the CM5 chip using an amine coupling method (EDC/NHS). The unoccupied sites were blocked with 1M ethanol amine. […] Flow cell 1 was kept blank and used for reference subtraction. Binding of an analyte to the ligand was monitored in real-time. Based on the scouting results, full kinetics were performed by immobilizing 10,000 RU of the ligand to a new chip using an analyte concentration of 25 μM, followed by serial dilution to 12.5, 6.25, 3.125, 1.562, 0.78, and 0 μM concentration, or as indicated. Data analysis was performed using software for Biacore 3000, because it has more flexibility in terms of obtaining the binding characteristics with a limited analyte concentration range. […] Chi-square (χ^2) analysis was performed between the actual sensorgram and the sensorgram generated from the BIAnalysis software to determine the accuracy of the analysis. A χ^2 value within 1–2 was considered to be significant (accurate) and below 1 was considered to be highly significant (highly accurate).
(§2) The four peptides identified by phage display were then tested for binding to human and mouse PD1 using the surface plasmon resonance technique.

mouse PD1 = biological target: T1, mouse PD1 (Mus musculus, UniProt Q02242); assay: Biacore surface plasmon resonance, binding to mouse PD1; conditions: for KA: 25°C, HEPES pH 7.4; for relative affinity for mouse PD1: compared to WQ20 and HD20 (Table 2)
T1 sequence (Q02242 25-288): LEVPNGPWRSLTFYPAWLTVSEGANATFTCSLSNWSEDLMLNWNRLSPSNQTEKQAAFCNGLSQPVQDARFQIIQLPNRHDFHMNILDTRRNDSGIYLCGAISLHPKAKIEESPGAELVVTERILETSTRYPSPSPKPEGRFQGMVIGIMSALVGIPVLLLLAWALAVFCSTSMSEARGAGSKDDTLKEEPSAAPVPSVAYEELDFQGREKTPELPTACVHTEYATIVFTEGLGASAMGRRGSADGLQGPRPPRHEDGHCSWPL
Method: as §1, §2

[1] = tested on: human PD1 on Jurkat T cells; assay: Competitive inhibition of PD-L1-Fc binding to Jurkat cells overexpressing human PD1; type: cell-based; conditions: 10 μM peptide, 30 min on ice, PD-L1-Fc 4 μg/mL; flow cytometry MFI normalized to no peptide; duplicates
human PBMC = type: cell-based
P. yoelii sporozoites = assay: Sporozoite challenge and protection against malaria; type: in vivo, Plasmodium yoelii (17XNL) in BALB/c mice; conditions: AdPyCS 10^9 virus particles IM; 200 μg IP days 1, 3, 5, 7 where treated; challenge day 12; n = 20/group
Source text: Six- to eight-week-old female BALB/c mice were purchased from Taconic (Germantown, NY, USA). All mice were maintained under standard conditions in the Laboratory Animal Research Center of the Rockefeller University, and the protocol was approved by the Institutional Animal Care and Use Committee at the Rockefeller University (Assurance no. A3081-01). A recombinant serotype 5 adenovirus, AdPyCS that expressed Plasmodium yoelii circumsporozoite protein (PyCS) was constructed as previously described ([32]). Wild-type P. yoelii parasites of the 17 XNL strain were maintained in the insect facility of the Division of Parasitology, Department of Microbiology at New York University School of Medicine. […]
Sporozoite challenge experiments were performed as described previously ([32]–[35]). […] Parasitemia was monitored from days 3 to 8 after the sporozoite challenge, by detecting the presence of parasitized red blood cells in thin blood smears to assess for a complete protection against malaria. […]
To evaluate efficacy of the PD1 peptide antagonists as a prophylactic vaccine adjuvant, a rodent malaria model dependent on the generation of protective CD8 T cells was employed. […] On day 12, spleens were harvested and the number of splenic circumsporozoite protein (CS)-specific, IFN-γ-secreting CD8^+ T cells were assessed using an ELISpot assay. […]

[2] = mouse PD1, peptide analyte 0–25 μM
[3] = mouse PD1, peptide analyte 0–25 μM, maximum binding capacity
[4] = human PD1, peptide analyte 0–25 μM

Chain of human PD1 (Q15116 25-288): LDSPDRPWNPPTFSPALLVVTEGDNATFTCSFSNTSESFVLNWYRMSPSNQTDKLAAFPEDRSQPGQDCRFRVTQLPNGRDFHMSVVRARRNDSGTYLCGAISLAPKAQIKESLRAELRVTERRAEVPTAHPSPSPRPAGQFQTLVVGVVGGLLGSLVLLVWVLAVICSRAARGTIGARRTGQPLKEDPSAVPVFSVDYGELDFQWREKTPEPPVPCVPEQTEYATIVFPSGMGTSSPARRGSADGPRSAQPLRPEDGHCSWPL

| Substance | Rmax (human PD1; human PD1, peptide analyte 0–12.5 μM) | KA (mouse PD1; [2]) | Rmax (mouse PD1; [3]) | reduction in PD-L1-Fc binding [1] | Rmax (mouse PD1; mouse PD1, mouse PD-L1 analyte 0–50 (head μM)) | Rmax (mouse PD1; mouse PD1, mouse PD-L1 analyte 0–1000 (head μM)) | KA (human PD1; [4]) | Rmax (human PD1; [4]) | relative affinity for mouse PD1 (mouse PD1) | cytokine secretion (IFN-γ, IL-17, IL-6) (human PBMC) | protection against malaria (P. yoelii sporozoites) |
| --- | --- | --- | --- | --- | --- | --- | --- | --- | --- | --- | --- |
| HHHQVYQVRSHWTGMHSGHD [HD20] | 3.35 RU | 4250 M⁻¹ | 76 RU | < 30% | – | – | – | – | – | – | – |
| Mouse PD-L1: mouse PD-L1 analyte [reference compound] | – | – | – | – | 259 RU | 1.07 × 10^3 RU | – | – | – | – | – |
| QTRTVPMPKIHHPPWQNVVP [QP20] | – | 18000 M⁻¹ | 13.4 RU | < 30% | – | – | 93600 M⁻¹ | 3.83 RU | bound to mouse PD1 with a higher affinity compared to WQ20 and HD20 | With the exception of QP20, the other PD1-binding peptides significantly increased cytokine secretion at 200 μM relative to tetanus alone | – |
| SSYHHFKMPELHFGKNTFHQ [SQ20] | – | 21400 M⁻¹ | 12.8 RU | > 30% | – | – | 194000 M⁻¹ | 4.05 RU | bound to mouse PD1 with a higher affinity compared to WQ20 and HD20 | – | – |
| negative control peptide: control peptide is the OVA323−339 peptide (malaria model) (KISQAVHAAHAEINEAG; UniProt P01012 323-339, looked up, fragment) | – | – | – | – | – | – | – | – | – | – | no protection |

— PMC7068811 (Frontiers in Immunology, 2020)
